Source: publication PMC11865978, “Cellular Activity of CQWW Nullomer-Derived Peptides” (ACS Omega, 2025)

Columns and labels:
Type in all cases: cell-based, human
GCGR-E13 = test: Multiparametric cell painting phenotypic profile (PCA); details: 1-16 μM, compared with control polyarginine peptide 15 and DMSO
Experimental: Figure 1 (A) 3D model of the CQWW peptide with residue labels shown in red. (B) Dose-dependent effect of peptide 2 (RRRRRCQWW) on cell survival across a range of cell lines, with fitted IC50 values shown below. (C) Representative live cell brightfield images of peptide 2 (RRRRRCQWW, 6 μM) against the glioblastoma stem cell line (GCGR-E28) versus normal neural stem cells (GCGR-NS9FB_B) after 3 h of incubation. (D) 3D principal component analysis (PCA 1, 2, and 3) from multiparametric cell painting image analysis of the GCGR-E13 cell line. […]
The phenotypic effect of the peptides was visualized by live cell imaging (Figure 1C, IncuCyte live cell imager) and also quantified via image analysis of cells labeled with the cell painting reagents (see Supporting Information) followed by image analysis using Cell Profiler (cellprofiler.org). […]
BSA/PBS. […] The data was then analyzed using a custom CellProfiler software pipeline using the University of Edinburgh high performance computing cluster. Dose response plots were calculated using HC StratomineR (corelifeanalytics.com). Nuclei count data was analyzed separately to generate cell survival metrics (normalized to aqueous glycerol/TX -100 control).
Dose response curves were fitted and IC50 values calculated using Prism GraphPad (graphpad.com). […]

GCGR-E31 = details: 72 h
Experimental: (§1) Peptides were tested in an automated image-based high-content[42] cell painting[43],[44] assay that was originally developed to explore the mechanism of action of pharmacological and genetic perturbations within cells,[45] as well as a live cell imaging assay against six patient-derived glioblastoma cell lines (GCGR-E13, GCGR-E28, GCGR-E21, GCGR-E57, GCGR-E31, and GCGR-E34), covering classical, mesenchymal, and proneural subtypes, respectively (see Methods and Figure 1B–D), along with a healthy human fetal neuronal stem cell line (GCGR-NS9FB_B).
(§2) Cell survival was quantified by nuclei counts from the Hoechst dye-stained nuclei and IC50 values calculated along with 95% confidence intervals (Figure 1B; see Table S2 for full details). […]
(§3) High Content Phenotypic Screening assays
(§4) Cell lines (glioma stem cell lines and normal foetal neural stem cells) were seeded on laminin (10 µg/mL) coated 384-well plates (Greiner Bio-One, 781091) at 1,000 cells/well and incubated overnight at 37 °C and 5% CO2. Aqueous peptide solutions (10 mM) were further diluted to 1 mM in water containing 10 % glycerol and 0.01 % TX-100. Cells were dosed using a D300 digital dispenser (Tecan) by 10-point dose response (30 µM – 1 µM) in triplicate and with aqueous glycerol/TX-100 as control. The cells were placed in an IncuCyte live cell imager (Essen BioScience) and imaged every three hours for 72 hours. Prior to fixation, the plates were removed from the IncuCyte and stained with Mitrotracker DeepRed (Invitrogen, M22426, 300 nM, 30 minutes). Cells were then fixed using 4 % formaldehyde and permeabilized with 0.1 % TX-100 in PBS. The cells were stained with ‘Cell Painting’ […]
(§5) assay reagents1: Hoechst 33342 (10 mg/mL stock, Molecular Probes, 1:5000), SYTO14 […]
(§6) BSA/PBS. The plates were imaged using an ImageXpress high content microscope (Molecular Devices). Cells were imaged with a 20× objective, covering 6 fields-of-view in each well. The data was then analyzed using a custom CellProfiler software pipeline using the University of Edinburgh high performance computing cluster. Dose response plots were calculated using HC StratomineR (corelifeanalytics.com). Nuclei count data was analyzed separately to generate cell survival metrics (normalized to aqueous glycerol/TX -100 control). […]

GCGR-E57 = details: 72 h
Experimental: as §1, §2, §3, §4, §5, §6

GCGR-E28 = details: 72 h
Experimental: as §1, §2, §3, §4, §5, §6

GCGR-NS9FB_B = details: 72 h
Experimental: as §1, §2, §3, §4, §5, §6

H-RRRRRCQWW-NH2 [Peptide 2]
phenotypic profile in 3D principal component plot of cell painting features (GCGR-E13): strong, dose-dependent phenotype | IC50 (GCGR-E31): 5.1 µM | IC50 (GCGR-E57): 4.3 µM | IC50 (GCGR-E28): 5.4 µM | IC50 (GCGR-NS9FB_B): 7.9 µM
